Test results taken from article PMC12444550, “Design, Synthesis, and Trypanosomicidal Evaluation of Eugenol-Based Azole Hybrids: Discovery of an In Vitro Active and Selective Compound” (ACS Omega, 2025).

What was measured:
Trypanosoma cruzi = details: cited from earlier work
[1] = system: T. cruzi Y strain trypomastigote forms; experiment: Anti-T. cruzi activity against trypomastigote forms; format: cell-based; details: Y strain; for EC50: Trypanosoma cruzi, 24 h, 24 h of incubation, read-out: Y strain T. cruzi EC50 Trypomastigote
Description: (§1) The T. cruzi Y strain was selected for this study due to its known partial sensitivity to benznidazole chemotherapy.
Trypomastigote forms of T. cruzi (2.5 × 10^5 parasites/well) were incubated in 96-well plates with serial dilutions of the hybrid compounds (100, 50, 25, and 12.5 μmol·L^–1) for 24 h at 37 °C in a humidified 5% CO2 atmosphere. Following incubation, parasite viability was assessed under an optical microscope by evaluating motility, and the number of live parasites was quantified using a Neubauer chamber. Untreated parasite cultures were maintained in parallel as negative controls. The mortality percentage was calculated by comparing the number of live parasites in treated wells to that of untreated controls. All experiments were conducted in triplicate with at least two technical replicates per concentration. EC50 values were determined by nonlinear regression using GraphPad Prism 8 and CompuSyn software (Biosoft, U.K.).

[2] = system: T. cruzi intracellular amastigote forms; details: in vitro; cited from earlier work
[3] = Cell viability assay (resazurin), H9c2 cells; format: cell-based; details: rat, resazurin method, 48 h incubation, read-out: Cytotoxicity CC50 H9c2
Description: (§2) Vero and H9c2 cells (2 × 10^3 cells/well) were seeded in 96-well plates in Dulbecco’s modified Eagle’s medium (DMEM) supplemented with 5% fetal bovine serum (FBS) and incubated for 24 h at 37 °C in a humidified atmosphere with 5% CO2. After incubation, the medium was replaced with fresh DMEM + 5% FBS containing serial dilutions of each hybrid compound (1400 to 175 μmol·L^–1). Cells were exposed to the compounds for 48 h. Four wells with untreated cells served as a positive control. Additionally, eight wells without cells were maintained as negative controls: four containing DMEM + 5% FBS + resazurin (1 mmol·L^–1), and four containing only DMEM + 5% FBS. After the 48-h incubation, the treatment medium was removed and replaced with DMEM + 5% FBS containing 10% resazurin solution (1 mmol·L^–1). Plates were incubated for an additional 6 h, and then absorbance was measured at 570 and 600 nm using a microplate reader. Dose–response curves were constructed using GraphPad Prism 8 software, and CC50 values were determined by nonlinear regression.

[4] = system: T. cruzi Y strain amastigote forms; experiment: Anti-T. cruzi activity against intracellular amastigote forms in infected Vero or H9c2 cells; format: cell-based, Trypanosoma cruzi; details: Trypanosoma cruzi; Vero or H9c2 cells infected with amastigote forms; 48 h of incubation; fixed concentration 50 μmol·L^–1
Description: as §1
Vero or H9c2 cells (7.5 × 10^3 cells/well) were seeded on sterile glass coverslips placed in 24-well plates and incubated for 24 h at 37 °C in 5% CO2 to allow cell adhesion. Following this period, cells were infected with trypomastigote forms of T. cruzi Y strain at a ratio of 20 parasites per cell. After 24 h of parasite-host interaction, noninternalized parasites were removed by washing with fresh medium, and the infected monolayers were incubated for 48 h with the hybrid compounds at a fixed concentration of 50 μmol·L^–1, following toxicity parameters. Infected but untreated cells were included as negative controls in all experiments. At the end of the treatment period, coverslips were washed with medium, fixed with methanol, and stained with Giemsa solution. After drying, the coverslips were mounted onto microscope slides using Entellan (Merck) and analyzed under a light microscope at 100× magnification. At least 200 cells were counted per coverslip, and only intracellular parasite forms with characteristic morphology were considered for analysis. The infection index was determined by the percentage of infected cells relative to the total number of cells analyzed. The inhibition percentage was calculated based on the reduction in infection in treated samples compared to the untreated control. Dose–response curves were constructed using GraphPad Prism 8 and CompuSyn (Biosoft, U.K.). All experiments were performed in triplicate, with at least two technical replicates per condition.

[5] = Cell viability assay (resazurin), Vero cells; format: cell-based; details: African green monkey, Vero cells; resazurin method; 48 h incubation; read-out: Cytotoxicity CC50 Vero
Description: as §2

Vero cells = experiment: Cell viability assay (resazurin), Vero cells; format: cell-based; details: 48 h; 1400 to 175 μmol·L^–1
Description: as §2

T. cruzi epimastigotes = system: T. cruzi epimastigotes; design: method as in Brancaglion and coauthors; details: ref Brancaglion and coauthors; read-out: in vitro IC50 against epimastigotes; cited from earlier work

| Structure (SMILES) | EC50 [1] [µM] | EC50 [4] [µM] | CC50 at 48 h [3] [µM] | CC50 at 48 h [5] [µM] | cytotoxicity toward Vero cells (in words) (Vero cells) | further results |
| --- | --- | --- | --- | --- | --- | --- |
| C[C@@H](c1nc(-c2ccc(C#N)cc2)cs1)[C@](O)(Cn1cncn1)c1ccc(F)cc1F [ravuconazole] |  |  |  |  |  | inhibitory concentration against intracellular amastigotes (in words) [2]: subnanomolar concentrations |
| CCCc1cc(OC)c2oc(=O)c(C(=O)c3ccc([N+](=O)[O-])cc3)cc2c1 [nitrobenzoyl derivative, 8-methoxy-3-(4-nitrobenzoyl)-6-propyl-2H-cromen-2-one] |  |  |  |  |  | IC50 (T. cruzi epimastigotes): 28 µM |
| COc1cc(CC(O)Cn2cncn2)ccc1O (racemic) [Compound 18, (±)-4-(2-Hydroxy-3-(1H-1,2,4-triazol-1-yl)propyl)-2-methoxyphenol] | > 100 | > 50 | > 1300 | > 1300 |  |  |
| CC[C@@H]([C@H](C)O)n1ncn(-c2ccc(N3CCN(c4ccc(OC[C@@H]5CO[C@@](Cn6cncn6)(c6ccc(F)cc6F)C5)cc4)CC3)cc2)c1=O [posaconazole] |  |  |  |  |  | inhibitory concentration against intracellular amastigotes (in words) [2]: subnanomolar concentrations |
| COc1cc(CC(O)Cn2cncn2)cc([N+](=O)[O-])c1OCc1ccccc1 (racemic) [Compound 23, (±)-1-(4-(Benzyloxy)-3-methoxy-5-nitrophenyl)-3-(1H-1,2,4-triazol-1-yl)propan-2-ol] | > 100 | > 50 | > 1300 | > 1300 |  | activity against trypomastigote forms (in words) ([1]; up to 100 μmol·L^–1): inactive |
| COc1ccc(CC(O)Cn2ccnc2)cc1OC (racemic) [Compound 26, (±)-1-(3,4-Dimethoxyphenyl)-3-(1H-imidazol-1-yl)propan-2-ol] | > 100 | > 50 | > 1300 | > 1300 |  |  |

The next lines start with results.

| EC50 [1] [µM] | EC50 [4] [µM] | Structure (SMILES) | CC50 at 48 h [3] [µM] | CC50 at 48 h [5] [µM] | cytotoxicity toward Vero cells (in words) (Vero cells) | further results |
| --- | --- | --- | --- | --- | --- | --- |
| 21 |  | O=C(Cn1ccnc1[N+](=O)[O-])NCc1ccccc1 [Bz, benznidazole] |  |  |  | parasitological cure rates (Trypanosoma cruzi; acute or early congenital infections): 80–90%; treatment discontinuation due to adverse effects (Trypanosoma cruzi; dermatological, gastrointestinal and neurological symptoms): 10–20 % of patients |
| > 100 | > 50 | COc1cc(CC(O)Cn2ccnn2)cc([N+](=O)[O-])c1OC (racemic) [Compound 33, (±)-1-(3,4-Dimethoxy-5-nitrophenyl)-3-(1H-1,2,3-triazol-1-yl)propan-2-ol] | > 1300 | 1190 | significantly higher cytotoxicity |  |
| > 100 | > 50 | COc1ccc(CC(O)Cn2cncn2)cc1OC (racemic) [Compound 20, (±)-1-(3,4-Dimethoxyphenyl)-3-(1H-1,2,4-triazol-1-yl)propan-2-ol] | > 1300 | > 1400 | significantly higher cytotoxicity |  |
| > 100 | > 50 | COc1cc(CC(O)Cn2ccnc2)cc([N+](=O)[O-])c1O (racemic) [Compound 25, (±)-4-(2-Hydroxy-3-(1H-imidazol-1-yl)propyl)-2-methoxy-6-nitrophenol] | > 1300 | 860 | significantly higher cytotoxicity |  |
